# Assays:
# [1] = Barrel test experiments on used broiler litter, Examples 5-8; details: used rice hull litter in tubs, vs untreated control
# Source text: Used litter (rice hulls which may also contain poultry manure, moisture, feed residue and/or feathers) were acquired from a commercial broiler chicken farm and transported in plastic barrels. Twenty three kilograms of litter were weighed into 0.4 m^2 plastic tubs to cover the tubs to a depth of approximately 10 cm. The tubs were stored uncovered in a poultry rearing facility, and environmental conditions were controlled to mimic the conditions that would be experienced in a commercial broiler house (temperature around 32° C.).
# Tubs were treated with NaHSO4 at a dose equivalent to 1 wt % Ammonia was then measured for 35 days.
# Tubs were treated in two steps. A dose equivalent to 1 wt % of NaHSO4 as Acidifier was added to the tubs. After 24 hours, a dose equivalent to 3.2 wt % of Na2EDTA was added and dispersed. Ammonia was then measured for 35 days.
# Tubs were treated in two steps. A dose equivalent to 1 wt % of NaHSO4 as Acidifier was added to the tubs. After 24 hours, a dose equivalent to 3.2 wt % of K2EDTA was added as an aqueous solution. Ammonia was then measured for 35 days.
# Tubs were treated in two steps. A dose equivalent to 1.23 wt % of EDTA Acid was added to the tubs. After 24 hours, a dose equivalent to 3.2 wt % of Na2EDTA was added and dispersed. Ammonia was then measured for 35 days.
# Staphylococcus-cohnii = experiment: Lab headspace ammonia test on ground straw with synthetic poultry urine, Example 3; format: cell-based
# Method: (§1) Synthetic Poultry Urine Preparation. In these Examples, synthetic urine was prepared as follows for each 100 g of synthetic poultry urine needed. The amounts can be scaled up or down as needed. The following components were added to a sterilized bottle: Urea (USP Grade): 0.43 g, Ammonia: 0.46 g, K3PO4 (USP grade): 6.8 g, Milli-Q water: 83.52 g. The bottle was capped and placed on a bottle roller at ambient temperature for 1 to 3 hours. The pH of the solution was measured to confirm the pH is between 13 and 14.
# (§2) Bacteria Preparation. In these Examples, the Staphylococcus-cohnii and the Staphylococcus-cohnii/Staphylococcus-xylosus bacteria strains used were environmental isolates from poultry manure and cat litter respectively. As used herein, “Staphylococcus-cohnii/Staphylococcus-xylosus” refers to a bacteria strain that is an environmental isolate from cat feces that through DNA sequencing has been identified to be genetically similar to both Staphylococcus-cohnii and Staphylococcus-xylosus. The identifications were determined by DNA sequencing at an external lab with genus confidence level.
# (§3) The bacteria strains were isolated on a sterile tryptic soy agar plate, grown for 2 days in a 30 degrees ° C. incubator and stored in a refrigerator. A fresh plate was prepared every 2 weeks.
# The bacteria were grown the day before the start of the experiments by taking a loopful of the bacteria from the agar plate with a 10 uL loop and immersing it in 10 mL sterile tryptic soy broth filling half of the container. All bacteria used in the Examples are aerobic and therefore need air on top of the growth medium. The vials were incubated at 30 degrees C. in a shaking incubator at 100 rpm for 24 hours. The count of the bacteria in the growth media was determined by the serial dilutions method, where 10 serial dilutions of the growth medium in sterile Physiological Buffered Saline (PBS) solution are performed with 10× dilution each time. Each dilution was plated twice using 100 μL of growth media for each plate. The numbers of colonies were counted on the dilution plate that had between 30 and 300 colony forming units (CFU) on it. The number of colony forming units in the original growth media was then determined by back-calculating the number of dilutions. […] All pipettes, containers, tips, spoons etc. equipment used for these experiments were sterile in order to prevent contamination with other bacteria. Litters, treatments and chemicals used for preparing synthetic urine were used as-is, without sterilization.
# Preparation of grinded straw bedding. A sterilized lab blender was loaded with straw and grinded at pulsed, high setting for 15-45 seconds. Then a new batch of straw was loaded to the blender. […]
# [2] = tested on: Staphylococcus-xylosus/Staphylococcus-cohnii; experiment: Lab headspace ammonia test on ground straw with synthetic poultry urine, Example 4; format: cell-based
# Method: as §1, §2, §3
# The bacteria were grown the day before the start of the experiments by taking a loopful of the bacteria from the agar plate with a 10 uL loop and immersing it in 10 mL sterile tryptic soy broth filling half of the container. All bacteria used in the Examples are aerobic and therefore need air on top of the growth medium. […] The count of the bacteria in the growth media was determined by the serial dilutions method, where 10 serial dilutions of the growth medium in sterile Physiological Buffered Saline (PBS) solution are performed with 10× dilution each time. […] The numbers of colonies were counted on the dilution plate that had between 30 and 300 colony forming units (CFU) on it. The number of colony forming units in the original growth media was then determined by back-calculating the number of dilutions. […]
# [3] = 1 day after treatment, vs untreated control
# [4] = 3 days after treatment, untreated control 200+ ppm (above tube limit)
SMILES,% improvement in headspace ammonia ([1]; 3 days after treatment) [%],% improvement in headspace ammonia ([1]; 7 days after treatment) [%],% improvement in headspace ammonia ([1]; 14 days after treatment) [%],% improvement in headspace ammonia ([1]; 21 days after treatment) [%],% improvement in headspace ammonia ([1]; 28 days after treatment) [%],% improvement in headspace ammonia (Staphylococcus-cohnii; [3]) [%],% improvement in headspace ammonia (Staphylococcus-cohnii; [4]),"% improvement in headspace ammonia [2, 3] [%]","% improvement in headspace ammonia [2, 4]"
"O=S(=O)([O-])O.[Na+] [1 wt % NaHSO4, NaHSO4]",92,74,37,−37,−16,–,–,–,–
"O=C(O)CN(CCN(CC(=O)O)CC(=O)O)CC(=O)O.[K].[K] [2.5% K2EDTA sprayed on top, dipotassium ethylenediaminetetraacetic acid]",–,–,–,–,–,64,5+ %,57,–
"O=C(O)CN(CCN(CC(=O)O)CC(=O)O)CC(=O)O.[K].[K] [2.5% K2EDTA, dipotassium ethylenediaminetetraacetic acid]",–,–,–,–,–,64,8+ %,73,12+ %
